For one data set, the system named is CCRF-CEM. The data set can be described thus: Cytotoxicity against human CCRF-CEM cells assessed as inhibition of cell growth incubated for 72 hrs by MTS assay. It is filed as functional, cell-based. For orientation: Tetrazolium dyes change colour on reduction, which living cells bring about.
For another data set, the system named is CEM-DNR. The data set can be described thus: Cytotoxicity against human CEM-DNR cells assessed as inhibition of cell growth incubated for 72 hrs by MTS assay. It is filed as functional, cell-based.
The next data set deals with K562. As to the kind of experiment: Cytotoxicity against human K562 cells assessed as inhibition of cell growth incubated for 72 hrs by MTS assay. It is filed as functional, cell-based. The conditions noted are these: K562, 72 h.
Data set [1] can be described thus: Cytotoxicity against human K562-Tax cells assessed as inhibition of cell growth incubated for 72 hrs by MTS assay. It is filed as functional, cell-based.
Another data set relates to A549. The data set can be described thus: Cytotoxicity against human A549 cells assessed as inhibition of cell growth incubated for 72 hrs by MTS assay. It is filed as functional, cell-based. The conditions noted are these: A549, 72 h.
For a further data set, the system named is HCT-116. As to the kind of experiment: Cytotoxicity against human HCT-116 cells assessed as inhibition of cell growth incubated for 72 hrs by MTS assay. It counts as functional, cell-based. The conditions noted are these: HCT-116, 72 h.
Data set [2] in a line: Cytotoxicity against human p53HCT116 cells assessed as inhibition of cell growth incubated for 72 hrs by MTS assay. It counts as functional, cell-based. The conditions noted are these: p53HCT116, 72 h.
The next data set has as its system U2OS. The data set can be described thus: Cytotoxicity against human U2OS cells assessed as inhibition of cell growth incubated for 72 hrs by MTS assay. It counts as functional, cell-based.
Data set [3] can be described thus: Cytotoxicity against human BJ cells assessed as inhibition of cell growth incubated for 72 hrs by MTS assay. It counts as toxicity, cell-based.
Data set [4] in a line: Cytotoxicity against human MRC5 cells assessed as inhibition of cell growth incubated for 72 hrs by MTS assay. It is filed as toxicity, cell-based.

pIC50: −log10 of the molar value.

These results are taken from ChEMBL document CHEMBL5247620, “Lupane derivatives containing various aryl substituents in the position 3 have selective cytostatic effect in leukemic cancer cells including resistant phenotypes” (Eur J Med Chem, 2022).

The term pIC50 denotes the negative decadic logarithm of the IC50, by convention in mol/L. One may read the IC50 as the concentration at which inhibition is half-maximal.

In the case of `C=C(C)[C@@H]1CC[C@]2(C(=O)O)CC[C@]3(C)[C@H](CC[C@@H]4[C@@]5(C)CC=C(c6cccc([N+](=O)[O-])c6)C(C)(C)[C@@H]5CC[C@]43C)[C@@H]12`, the pIC50 was 4.74 with CCRF-CEM; 4.37 in the data set with CEM-DNR; 4.35 in the data set with K562; 4.62 in data set [1]; 4.47 in the data set on A549; 4.32 in the data set with HCT-116. The negative-log IC50 (pIC50) in data set [2] was 4.33; in the data set with U2OS, 4.34. The IC50 at 72 h came out at 50 µM in [3] and 48 µM in [4].
For `C=C(C)[C@@H]1CC[C@]2(C(=O)O)CC[C@]3(C)[C@H](CC[C@@H]4[C@@]5(C)CC=C(c6ccccc6OC)C(C)(C)[C@@H]5CC[C@]43C)[C@@H]12`, the negative logarithm of the IC50 (pIC50) is 4.80 in the data set on CCRF-CEM; 4.62 in the data set with CEM-DNR; 4.52 in the data set on K562; 4.64 in [1]; 4.38 with A549; 4.62 in the data set with HCT-116. Further, the results for the pIC50 (in data set [2]; with U2OS) were 4.64 and 4.55, respectively. The 50% inhibitory concentration (IC50) at 72 h was 48 µM in data set [3] and 27 µM in [4].
In the case of `C=C(C)[C@@H]1CC[C@]2(C(=O)O)CC[C@]3(C)[C@H](CC[C@@H]4[C@@]5(C)CC=C(c6ccccc6O)C(C)(C)[C@@H]5CC[C@]43C)[C@@H]12`, the negative logarithm of the IC50 (pIC50) with CCRF-CEM was 5.00; in the data set on CEM-DNR it was 4.52; with K562 it was below 4.30; in data set [1] it was 4.82; in the data set on A549, 4.39; in the data set on HCT-116 it was 4.52. The negative logarithm of the IC50 (pIC50) was below 4.30 in data set [2] and 4.59 in the data set with U2OS. The figures for the IC50 at 72 h in [3] and in [4] were above 50 µM and 31 µM, respectively.
Turning to `C=C(C)[C@@H]1CC[C@]2(C(=O)O)CC[C@]3(C)[C@H](CC[C@@H]4[C@@]5(C)CC=C(c6ccc(N)cc6)C(C)(C)[C@@H]5CC[C@]43C)[C@@H]12`, the pIC50 in the data set on CCRF-CEM is 5.42; with CEM-DNR, 4.96; in the data set on K562 it was 4.77; in [1], 4.72; in the data set with A549, 4.59; in the data set on HCT-116 it was 4.60. For the same compound, the pIC50 in [2] is 4.62; in the data set with U2OS it was 4.66. In addition, the IC50 at 72 h in data set [3] and in data set [4] was above 50 µM each time.
Regarding `C=C(C)[C@@H]1CC[C@]2(C(=O)OCc3ccccc3)CC[C@]3(C)[C@H](CC[C@@H]4[C@@]5(C)CC=C(OS(=O)(=O)C(F)(F)F)C(C)(C)[C@@H]5CC[C@]43C)[C@@H]12`, the pIC50 with CCRF-CEM was 4.85; with CEM-DNR, 4.66; in the data set with K562, 4.64; in [1], 4.74; in the data set on A549 it was 4.70; with HCT-116, 4.66. Moreover, the negative logarithm of the IC50 (pIC50) (in [2]; in the data set on U2OS) was 4.54 throughout. Further, the IC50 at 72 h was found to be 40 µM in [3] and 27 µM in data set [4].
With `C=C(C)[C@@H]1CC[C@]2(C(=O)O)CC[C@]3(C)[C@H](CC[C@@H]4[C@@]5(C)CC=C(c6ccc(C(=O)OC)cc6)C(C)(C)[C@@H]5CC[C@]43C)[C@@H]12`, the pIC50 in the data set on CCRF-CEM is 4.34; with CEM-DNR, 4.33; in the data set with K562 it was 4.32; in data set [1] it was 5.14; in the data set with A549, 4.33; with HCT-116, 4.33. Besides, the negative logarithm of the IC50 (pIC50) in data set [2] is 4.33; in the data set on U2OS, 4.34. In addition, the IC50 at 72 h in [3] was found to be 47 µM; in data set [4], 46 µM.
Turning to `C=C(C)[C@@H]1CC[C@]2(C(=O)O)CC[C@]3(C)[C@H](CC[C@@H]4[C@@]5(C)CC=C(c6cccc(C(=O)OC)c6)C(C)(C)[C@@H]5CC[C@]43C)[C@@H]12`, the negative-log IC50 (pIC50) was 4.77 in the data set with CCRF-CEM; below 4.30 with CEM-DNR; below 4.30 in the data set with K562; 4.37 in data set [1]; below 4.30 with A549; 4.30 in the data set on HCT-116. The pIC50 was 4.39 in data set [2] and 5.06 with U2OS. Further, the results for the 50% inhibitory concentration (IC50) at 72 h in [3] and in data set [4] were above 50 µM and 44 µM, respectively.
Regarding `C=C(C)[C@@H]1CC[C@]2(C(=O)O)CC[C@]3(C)[C@H](CC[C@@H]4[C@@]5(C)CC=C(c6cccc(OC)c6)C(C)(C)[C@@H]5CC[C@]43C)[C@@H]12`, the negative logarithm of the IC50 (pIC50) was 4.82 in the data set on CCRF-CEM; 4.51 in the data set with CEM-DNR; below 4.30 in the data set on K562; 4.54 in data set [1]; 4.35 with A549; 4.51 in the data set with HCT-116. Moreover, the negative logarithm of the IC50 (pIC50) in data set [2] is below 4.30; with U2OS, 4.46. Moreover, the half-inhibitory concentration (IC50) at 72 h in data set [3] and in data set [4] was above 50 µM in each case.
As to `C=C(C)[C@@H]1CC[C@]2(C(=O)O)CC[C@]3(C)[C@H](CC[C@@H]4[C@@]5(C)CC=C(c6cccc(C(F)(F)F)c6)C(C)(C)[C@@H]5CC[C@]43C)[C@@H]12`, the pIC50 in the data set with CCRF-CEM was 4.72; in the data set on CEM-DNR it was 4.43; in the data set with K562 it was below 4.30; in data set [1], 4.52; in the data set on A549 it was 4.34; in the data set on HCT-116 it was 4.43. In addition, the results for the negative logarithm of the IC50 (pIC50) (in [2]; with U2OS) were below 4.30 and 4.35, respectively. Further, the IC50 at 72 h is above 50 µM in data set [3] and 50 µM in data set [4].
With `C=C(C)[C@@H]1CC[C@]2(C(=O)O)CC[C@]3(C)[C@H](CC[C@@H]4[C@@]5(C)CC=C(c6ccc(OC)cc6)C(C)(C)[C@@H]5CC[C@]43C)[C@@H]12`, the pIC50 in the data set on CCRF-CEM was 4.64; with CEM-DNR, 4.30; with K562 it was 4.30; in [1], 4.30; with A549, 4.37; with HCT-116 it was 4.30. Besides, the negative logarithm of the IC50 (pIC50) in [2] is 4.30; with U2OS, 4.38. Moreover, the IC50 at 72 h was 50 µM in [3] and 46 µM in data set [4].
On to `C=C(C)[C@@H]1CC[C@]2(C(=O)O)CC[C@]3(C)[C@H](CC[C@@H]4[C@@]5(C)CC=C(c6ccccc6C(=O)OC)C(C)(C)[C@@H]5CC[C@]43C)[C@@H]12`, for which the pIC50 is 4.82 in the data set on CCRF-CEM; 4.57 in the data set on CEM-DNR; 4.59 in the data set on K562; 4.54 in data set [1]; 4.59 with A549; 4.57 in the data set with HCT-116. For the same compound, the pIC50 in data set [2] is 4.64; with U2OS it was 4.60. Further, the concentration for half-maximal inhibition (IC50) at 72 h stood at 38 µM in data set [3] and 22 µM in [4].
Turning to `C=C(C)[C@@H]1CC[C@]2(C(=O)O)CC[C@]3(C)[C@H](CC[C@@H]4[C@@]5(C)CC=C(c6ccc([N+](=O)[O-])cc6)C(C)(C)[C@@H]5CC[C@]43C)[C@@H]12`, the pIC50 was 4.59 in the data set with CCRF-CEM; below 4.30 with CEM-DNR; below 4.30 with K562; below 4.30 in data set [1]; below 4.30 with A549; below 4.30 in the data set with HCT-116. The pIC50 is below 4.30 in data set [2] and 4.38 in the data set on U2OS. Further, the half-inhibitory concentration (IC50) at 72 h in data set [3] and in data set [4] was above 50 µM in each case.
With `C=C(C)[C@@H]1CC[C@]2(C(=O)O)CC[C@]3(C)[C@H](CC[C@@H]4[C@@]5(C)CC=C(c6ccccc6N)C(C)(C)[C@@H]5CC[C@]43C)[C@@H]12`, the negative-log IC50 (pIC50) was 4.96 in the data set with CCRF-CEM; 4.34 in the data set with CEM-DNR; 4.34 with K562; 4.36 in [1]; 4.62 with A549; 4.34 in the data set on HCT-116. The results for the pIC50 (in data set [2]; in the data set with U2OS) were 4.74 and 4.57, respectively. In addition, the half-maximal inhibitory concentration (IC50) at 72 h in data set [3] and in data set [4] was above 50 µM in each case.
